The text below walks through data of patent US20040077881A1, “$G(d)1-pyrrolines used in pest control” (priority 2001, published 2004).

Each structure is given as a SMILES string.

Tested on in the first series: not listed separately
Kind of series: logP determination by HPLC (EEC directive 79/831 Annex V.A8, reversed-phase C 18). To be noted: first HPLC peak of the mixture of diastereomers; reversed-phase C 18, 43° C., pH 2.3. The class given is physicochemical. As to the method:
The stated logP values were determined in accordance with EEC directive 79/831 Annex V.A8 by HPLC (High Performance Liquid Chromatography) using a reversed-phase column (C 18). Temperature: 43° C. In the acidic range, the determination was carried out at pH 2.3 using the mobile phases 0.1% aqueous phosphoric acid and acetonitrile; linear gradient from 10% acetonitrile to 90% acetonitrile.
Regarding `O=S(=O)(O)C1CC(c2ccc(-c3ccc(OC(F)(F)F)cc3)cc2)N=C1c1c(F)cccc1F` (stereo not drawn) [Example 13, 5-(2,6-difluorophenyl)-2-[4′-(trifluoromethoxy)-1,1′-biphenyl-4-yl]-3,4-dihydro-2H-pyrrole-4-sulphonic acid], the “log P1” value came to 2.29.

Staying with this series, now noted: reversed-phase HPLC column (C 18), pH 2.3, HPLC, reversed-phase column (C 18), 43° C., pH 2.3, 0.1% aqueous phosphoric acid/acetonitrile; read-out: log P.
As to `CC(C)C=C1CC(c2ccc(-c3ccc(OC(F)(F)F)cc3)cc2)N=C1c1c(F)cccc1F` (stereo not drawn) [Example 17, 4-(2-methylpropylidene)-5-(2,6-difluorophenyl)-2-[4′-(trifluoromethoxy)-1,1′-biphenyl-4-yl]-3,4-dihydro-2H-pyrrole], the chromatographic logP was determined as 5.8. As for `O=S(=O)(Oc1ccc(-c2ccc([C@H]3C[C@H](Cl)C(c4c(F)cccc4F)=N3)cc2)cc1)C(F)(F)F` [Example 7, 4′-[(2R)-4-chloro-5-(2,6-difluorophenyl)-3,4-dihydro-2-yl]-1,1′-biphenyl-4-yl trifluoromethanesulphonate], the chromatographic logP amounted to 5.22. On the same count and under the same terms, as for `CC(C)(C)OC(=O)NC(CC(C)(C)C(=O)c1c(F)cccc1F)c1ccc(-c2ccc(OC(F)(F)F)cc2)cc1` (stereo not drawn) [tert-butyl 4-(2,6-difluorophenyl)-3,3-dimethyl-4-oxo-1-[4′-(trifluoromethoxy)-1,1′-biphenyl-4-yl]butylcarbamate], the figure is 6.45; as for `O=S(=O)(Oc1ccc([C@H]2CC(Cl)(Cl)C(c3c(F)cccc3F)=N2)cc1)C(F)(F)F` [Example 5], 4.88; as for `Fc1cccc(F)c1C1=N[C@@H](c2ccc(-c3ccc(OC(F)(F)F)cc3)cc2)CC1(Cl)Cl` [Example 6, (2R)-4,4-dichloro-5-(2,6-difluorophenyl)-2-[4′-(trifluoromethoxy)-1,1′-biphenyl-4-yl]-3,4-dihydro-2H-pyrrole], 5.91. The same measure, in the same setting: as for `Fc1cccc(F)c1C1=N[C@@H](c2ccc(-c3ccc(OC(F)(F)F)cc3)cc2)CC1=Cc1ccc(Br)cc1` [Example 14, (2R)-4-(4-bromobenzylidene)-5-(2,6-difluorophenyl)-2-[4′-(trifluoromethoxy)-1,1′-biphenyl-4-yl]-3,4-dihydro-2H-pyrrole], the figure is 6.43; as for `O=S(=O)(Oc1ccc([C@H]2CC(Br)(Br)C(c3c(F)cccc3F)=N2)cc1)C(F)(F)F` [Example 9, 4-[(2R)-4,4-dibromo-5-(2,6-difluorophenyl)-3,4-dihydro-2H-pyrrol-2-yl]phenyl-trifluoromethanesulphonate], 4.97; as for `CC1(C)CC(c2ccc(-c3ccc(OC(F)(F)F)cc3)cc2)N=C1c1c(F)cccc1F` (stereo not drawn) [Example 11, 4,4-dimethyl-5-(2,6-difluorophenyl)-2-[4′-(trifluoromethoxy)-1,1′-biphenyl-4-yl]-3,4-dihydro-2H-pyrrole], 5.67. `Fc1cccc(F)c1C1=N[C@@H](c2ccc(-c3ccc(OC(F)(F)F)cc3)cc2)CC1(Br)Br` [Example 10, (2R)-4,4-dibromo-5-(2,6-difluorophenyl)-2-[4′-(trifluoromethoxy)-1,1′-biphenyl-4-yl]-3,4-dihydro-2H-pyrrole]: the chromatographic logP came to 6.01.

Consider `CCOS(=O)(=O)C1CC(c2ccc(-c3ccc(OC(F)(F)F)cc3)cc2)N=C1c1c(F)cccc1F` (stereo not drawn) [Example 15, ethyl 5-(2,6-difluorophenyl)-2-[4′-(trifluoromethoxy)-1,1′-biphenyl-4-yl]-3,4-dihydro-2H-pyrrole-4-sulphonate], for which the chromatographic logP came out at 4.77. For `Fc1cccc(F)c1C1=NC(c2ccc(-c3ccc(OC(F)(F)F)cc3)cc2)CC1=Cc1ccccc1` (stereo not drawn) [Example 16, 4-benzylidene-5-(2,6-difluorophenyl)-2-[4′-(trifluoromethoxy)-1,1′-biphenyl-4-yl]-3,4-dihydro-2H-pyrrole], the chromatographic logP was found to be 5.77.

The same series, now with this note: reversed-phase HPLC column (C 18), pH 2.3, first HPLC peak of the mixture of diastereomers; reversed-phase C 18, 43° C., pH 2.3; read-out: log P1.
Consider `Fc1cccc(F)c1C1=NC(c2ccc(-c3ccc(OC(F)(F)F)cc3)cc2)CC1Cl` (stereo not drawn) [Example 1, 4-chloro-5-(2,6-difluorophenyl)-2-[4′-(trifluoromethoxy)-1,1′-biphenyl-4-yl]-3,4-dihydro-2H-pyrrole], for which the chromatographic logP was 5.31.

Turning to `O=S(=O)(O)C1CC(c2ccc(Br)cc2)N=C1c1c(F)cccc1F` (stereo not drawn) [Example 12, 2-(4-bromophenyl)-5-(2,6-difluorophenyl)-3,4-dihydro-2H-pyrrole-4-sulphonic acid], the chromatographic logP worked out at 1.4. On the same count and under the same terms, then `O=S(=O)(Oc1ccc([C@H]2CC(Cl)C(c3c(F)cccc3F)=N2)cc1)C(F)(F)F` (stereo partly drawn) [Example 3, 4-[(2R)-4-chloro-5-(2,6-difluorophenyl)-3,4-dihydro-2H-pyrrol-2-yl]phenyl-trifluoromethanesulphonate], with 4.34. Same read-out and setting: then `O=S(=O)(O)C1CC(c2ccc(-c3ccc(OC(F)(F)F)cc3)cc2)N=C1c1c(F)cccc1F` (stereo not drawn) [Example 13, 5-(2,6-difluorophenyl)-2-[4′-(trifluoromethoxy)-1,1′-biphenyl-4-yl]-3,4-dihydro-2H-pyrrole-4-sulphonic acid], with 2.32.

For the compound `O=S(=O)(Oc1ccc([C@H]2CC(Br)C(c3c(F)cccc3F)=N2)cc1)C(F)(F)F` (stereo partly drawn) [Example 8, 4-[(2R)-4-bromo-5-(2,6-difluorophenyl)-3,4-dihydro-2-pyrrol-2-yl]phenyl-trifluoromethanesulphonate], the chromatographic logP came out at 4.39. Still for that read-out and setting: then `Fc1cccc(F)c1C1=N[C@@H](c2ccc(-c3ccc(OC(F)(F)F)cc3)cc2)CC1Cl` (stereo partly drawn) [Example 2, (2R)-4-chloro-5-(2,6-difluorophenyl)-2-[4′-(trifluoromethoxy)-1,1′-biphenyl-4-yl]-3,4-dihydro-2H-pyrrole], with 5.31.

The same series, now with this note: reversed-phase HPLC column (C 18), pH 2.3, second HPLC peak of the mixture of diastereomers; reversed-phase C 18, 43° C., pH 2.3; read-out: log P2.
Consider `O=S(=O)(O)C1CC(c2ccc(Br)cc2)N=C1c1c(F)cccc1F` (stereo not drawn) [Example 12, 2-(4-bromophenyl)-5-(2,6-difluorophenyl)-3,4-dihydro-2H-pyrrole-4-sulphonic acid], for which the chromatographic logP amounted to 1.6. Same read-out and setting: as for `O=S(=O)(O)C1CC(c2ccc(-c3ccc(OC(F)(F)F)cc3)cc2)N=C1c1c(F)cccc1F` (stereo not drawn) [Example 13, 5-(2,6-difluorophenyl)-2-[4′-(trifluoromethoxy)-1,1′-biphenyl-4-yl]-3,4-dihydro-2H-pyrrole-4-sulphonic acid], the figure is 2.46; as for `O=S(=O)(Oc1ccc([C@H]2CC(Br)C(c3c(F)cccc3F)=N2)cc1)C(F)(F)F` (stereo partly drawn) [Example 8, 4-[(2R)-4-bromo-5-(2,6-difluorophenyl)-3,4-dihydro-2-pyrrol-2-yl]phenyl-trifluoromethanesulphonate], 4.49.

The series is the same for the next values; noted with them: reversed-phase HPLC column (C 18); HPLC, reversed-phase column (C 18), 43° C., pH 2.3, 0.1% aqueous phosphoric acid/acetonitrile; read-out: log P.
Regarding `CC(C)(C)OC(=O)N1C(=O)C(C)(C)CC1c1ccc(-c2ccc(OC(F)(F)F)cc2)cc1` (stereo not drawn) [tert-butyl 3,3-dimethyl-2-oxo-5-[4′-(trifluoromethoxy)-1,1′-biphenyl-4-yl]-1-pyrrolidinecarboxylate], the chromatographic logP came out at 4.99.

Still in this series, the particulars now being: second HPLC peak of the mixture of diastereomers; reversed-phase C 18, 43° C., pH 2.3.
`Fc1cccc(F)c1C1=NC(c2ccc(-c3ccc(OC(F)(F)F)cc3)cc2)CC1Cl` (stereo not drawn) [Example 1, 4-chloro-5-(2,6-difluorophenyl)-2-[4′-(trifluoromethoxy)-1,1′-biphenyl-4-yl]-3,4-dihydro-2H-pyrrole]: the “log P2” value was 5.39. Regarding `O=S(=O)(Oc1ccc([C@H]2CC(Cl)C(c3c(F)cccc3F)=N2)cc1)C(F)(F)F` (stereo partly drawn) [Example 3, 4-[(2R)-4-chloro-5-(2,6-difluorophenyl)-3,4-dihydro-2H-pyrrol-2-yl]phenyl-trifluoromethanesulphonate], the “log P2” value is listed as 4.40. On the same count and under the same terms, then `Fc1cccc(F)c1C1=N[C@@H](c2ccc(-c3ccc(OC(F)(F)F)cc3)cc2)CC1Cl` (stereo partly drawn) [Example 2, (2R)-4-chloro-5-(2,6-difluorophenyl)-2-[4′-(trifluoromethoxy)-1,1′-biphenyl-4-yl]-3,4-dihydro-2H-pyrrole], with 5.39.

A further series concerns greenhouse red spider mite (Tetranychus urticae). The series is described as follows: Tetranychus test (OP-resistant/dip treatment). The class given is in vivo. To be noted: 100 ppm, bean plants dipped, OP-resistant. As for the experimental part: [table] To produce a suitable preparation of active compound, 1 part by weight of active compound is mixed with the stated amounts of solvent and emulsifier, and the concentrate is diluted with emulsifier-containing water to the desired concentration. Bean plants (Phaseolus vulgaris) which are heavily infested by all stages of the greenhouse red spider mite (Tetranychus urticae) are dipped into a preparation of active compound of the desired concentration. After the desired period of time, the effect in % is determined. 100% means that all spider mites have been killed; 0% means that none of the spider mites have been killed.
Regarding `O=S(=O)(Oc1ccc([C@H]2CC(Br)C(c3c(F)cccc3F)=N2)cc1)C(F)(F)F` (stereo partly drawn) [drawing 81], the “Kill rate in % after 7 d” value is on record as 98%. In the case of `O=S(=O)(Oc1ccc(-c2ccc([C@H]3C[C@H](Cl)C(c4c(F)cccc4F)=N3)cc2)cc1)C(F)(F)F` [drawing 83], the “Kill rate in % after 7 d” value is 98%. On the same count and under the same terms, as for `Fc1cccc(F)c1C1=NC(c2ccc(-c3ccc(OC(F)(F)F)cc3)cc2)CC1Cl` (stereo not drawn) [drawing 77], the figure is 98%; as for `Fc1cccc(F)c1C1=N[C@@H](c2ccc(-c3ccc(OC(F)(F)F)cc3)cc2)C/C1=C\c1ccc(Br)cc1` [drawing 80], 98%; as for `Fc1cccc(F)c1C1=NC(c2ccc(-c3ccc(OC(F)(F)F)cc3)cc2)CC1(Cl)Cl` (stereo not drawn) [drawing 76], 98%. The same measure, in the same setting: as for `O=S(=O)(Oc1ccc([C@H]2CC(Cl)(Cl)C(c3c(F)cccc3F)=N2)cc1)C(F)(F)F` [drawing 82], the figure is 95%; as for `Fc1cccc(F)c1C1=N[C@@H](c2ccc(-c3ccc(OC(F)(F)F)cc3)cc2)CC1(Br)Br` [drawing 79], 98%; as for `Fc1cccc(F)c1C1=N[C@@H](c2ccc(-c3ccc(OC(F)(F)F)cc3)cc2)CC1(Cl)Cl` [drawing 78], 98%.

A further series has as its system larvae of the mustard beetle (Phaedon cochleariae). The series is described as follows: Phaedon larvae test. It is filed as in vivo. To be noted: 168 h, cabbage leaves dipped, after 7 d, read-out: Kill rate in % after 7 d. As to the method: [table] To produce a suitable preparation of active compound, 1 part by weight of active compound is mixed with the stated amounts of solvent and emulsifier, and the concentrate is diluted with emulsifier-containing water to the desired concentration. Cabbage leaves (Brassica oleracea) are treated by being dipped into the preparation of active compound of the desired concentration and are populated with larvae of the mustard beetle (Phaedon cochleariae) whilst the leaves are still moist. After the desired period of time, the kill in % is […]. 100% means that all beetle larvae have been killed; 0% means that none of the beetle larvae have been killed.
Regarding `O=S(=O)(Oc1ccc([C@H]2CC(Cl)(Cl)C(c3c(F)cccc3F)=N2)cc1)C(F)(F)F` [drawing 62], the pest or weed control at 1000 ppm was 100%. Still for that read-out and setting: as for `Fc1cccc(F)c1C1=N[C@@H](c2ccc(-c3ccc(OC(F)(F)F)cc3)cc2)C/C1=C\c1ccc(Br)cc1` [drawing 60], the figure is 100%; as for `O=S(=O)(Oc1ccc([C@H]2CC(Br)C(c3c(F)cccc3F)=N2)cc1)C(F)(F)F` (stereo partly drawn) [drawing 63], 100%; as for `Fc1cccc(F)c1C1=N[C@@H](c2ccc(-c3ccc(OC(F)(F)F)cc3)cc2)CC1(Br)Br` [drawing 59], 100%. The same measure, in the same setting: as for `Fc1cccc(F)c1C1=N[C@@H](c2ccc(-c3ccc(OC(F)(F)F)cc3)cc2)CC1(Cl)Cl` [drawing 58], the figure is 100%; as for `Fc1cccc(F)c1C1=NC(c2ccc(-c3ccc(OC(F)(F)F)cc3)cc2)CC1Cl` (stereo not drawn) [drawing 57], 100%; as for `O=S(=O)(Oc1ccc(-c2ccc([C@H]3C[C@H](Cl)C(c4c(F)cccc4F)=N3)cc2)cc1)C(F)(F)F` [drawing 64], 100%.

Consider `Fc1cccc(F)c1C1=NC(c2ccc(-c3ccc(OC(F)(F)F)cc3)cc2)CC1(Cl)Cl` (stereo not drawn) [drawing 56], for which the pest or weed control at 1000 ppm turned out to be 100%. On the same count and under the same terms, then `O=S(=O)(Oc1ccc([C@H]2CC(Cl)C(c3c(F)cccc3F)=N2)cc1)C(F)(F)F` (stereo partly drawn) [drawing 61], with 100%.
